4 molecules from ChEMBL document CHEMBL4138294, “Cybastacines A and B: Antibiotic Sesterterpenes from a Nostoc sp. Cyanobacterium” (2018) can be followed below.

Common to all, as to format: functional
The test system of one experiment is Enterococcus faecalis. Briefly: Antibacterial activity against Enterococcus faecalis clinical isolate by CLSI M07-A9 protocol based assay.
The test system of another experiment is Nocardia cyriacigeorgica. Briefly: Antibacterial activity against Nocardia cyriacigeorgica clinical isolate by CLSI M07-A9 protocol based assay.
The test system of the next experiment is Streptococcus pyogenes. Briefly: Antibacterial activity against Streptococcus pyogenes clinical isolate by CLSI M07-A9 protocol based assay.
The test system of experiment [1] is Staphylococcus epidermidis. Kind of experiment: Antibacterial activity against Staphylococcus epidermidis clinical isolate by CLSI M07-A9 protocol based assay.
The next experiment relates to Staphylococcus aureus. Briefly: Antibacterial activity against Staphylococcus aureus clinical isolate by CLSI M07-A9 protocol based assay.
For another experiment, the system named is Nocardia carnea. Kind of experiment: Antibacterial activity against Nocardia carnea clinical isolate by CLSI M07-A9 protocol based assay.
For experiment [2], the system named is Mycobacteroides abscessus. Briefly: Antibacterial activity against Mycobacterium abscessus clinical isolate by CLSI M07-A9 protocol based assay.
A further experiment deals with Enterococcus faecium. Kind of experiment: Antibacterial activity against Enterococcus faecium clinical isolate by CLSI M07-A9 protocol based assay.
The subject of a further experiment is Tsukamurella pulmonis. Briefly: Antibacterial activity against Tsukamurella pulmonis clinical isolate by CLSI M07-A9 protocol based assay.

SMILES strings stand for the structures. Bounds are passed on as bounds.

Usually MIC stands for the lowest concentration found to suppress growth. Higher therefore signals a less susceptible organism. For `CC1(C)CCC[C@]2(C)C3=C(CC[C@@H]12)[C@@]1(C)CC[C@@]2(C)NC(=N)NC[C@@H]2[C@@]1(C)C[C@H]3O`, the MIC against Enterococcus faecalis is no more than 32 µg/mL; in the experiment with Nocardia cyriacigeorgica, no more than 16 µg/mL; in the experiment on Streptococcus pyogenes, no more than 32 µg/mL; in experiment [1] it was no more than 32 µg/mL; against Staphylococcus aureus, no more than 32 µg/mL; against Nocardia carnea, no more than 16 µg/mL. In addition, the MIC in [2] is no more than 16 µg/mL; against Enterococcus faecium it was no more than 32 µg/mL; in the experiment with Tsukamurella pulmonis it was no more than 8 µg/mL.

For the molecule `CC1(C)CCC[C@]2(C)[C@@H]3C(=CC[C@@H]12)[C@@]1(C)CC[C@@]2(C)NC(=N)NC[C@@H]2[C@@]1(C)C[C@H]3O`, the MIC (in the experiment on Enterococcus faecalis; against Nocardia cyriacigeorgica; in the experiment on Streptococcus pyogenes; in experiment [1]; in the experiment with Staphylococcus aureus; in the experiment on Nocardia carnea) was no more than 4 µg/mL throughout. Also, the MIC in experiment [2] was no more than 4 µg/mL; against Enterococcus faecium it was no more than 4 µg/mL; in the experiment with Tsukamurella pulmonis, no more than 2 µg/mL.

Turning to `C[C@@H](O)[C@H]1C(=O)N2C(C(=O)O)=C(SCCNC=N)C[C@H]12` [IMIPENEM ANHYDROUS], the MIC (against Nocardia cyriacigeorgica; in the experiment with Nocardia carnea; in [2]; against Tsukamurella pulmonis) was no more than 8 µg/mL each time.

Consider `CN[C@H](CC(C)C)C(=O)N[C@H]1C(=O)N[C@@H](CC(N)=O)C(=O)N[C@H]2C(=O)N[C@H]3C(=O)N[C@H](C(=O)N[C@H](C(=O)O)c4cc(O)cc(O)c4-c4cc3ccc4O)[C@H](O)c3ccc(c(Cl)c3)Oc3cc2cc(c3O[C@@H]2O[C@H](CO)[C@@H](O)[C@H](O)[C@H]2O[C@H]2C[C@](C)(N)[C@H](O)[C@H](C)O2)Oc2ccc(cc2Cl)[C@H]1O` [VANCOMYCIN], for which the MIC was no more than 8 µg/mL in the experiment with Enterococcus faecalis; no more than 16 µg/mL against Streptococcus pyogenes; no more than 8 µg/mL in [1]; no more than 8 µg/mL against Staphylococcus aureus; no more than 8 µg/mL in the experiment with Enterococcus faecium.
